Reference: PMC3590144, “Determination of the Structure of the Catabolic N-Succinylornithine Transaminase (AstC) from Escherichia coli” (PLoS ONE, 2013)

Tests used:
Assay type in all cases: binding
[1] = target: T1, AstC (Escherichia coli, UniProt P77581); test: X-ray crystal structure, […] Å; details: covalent; internal aldimine with Lys252 at dimer interface; sodium malonate, Tris pH 8.0
T1 construct: full-length, native untagged, no plasmid; purified from E. coli BL21(DE3) by Ni-NTA and size exclusion as apo-protein, reconstituted with PLP; about 406 residues; dimer
T1 sequence (P77581 whole entry): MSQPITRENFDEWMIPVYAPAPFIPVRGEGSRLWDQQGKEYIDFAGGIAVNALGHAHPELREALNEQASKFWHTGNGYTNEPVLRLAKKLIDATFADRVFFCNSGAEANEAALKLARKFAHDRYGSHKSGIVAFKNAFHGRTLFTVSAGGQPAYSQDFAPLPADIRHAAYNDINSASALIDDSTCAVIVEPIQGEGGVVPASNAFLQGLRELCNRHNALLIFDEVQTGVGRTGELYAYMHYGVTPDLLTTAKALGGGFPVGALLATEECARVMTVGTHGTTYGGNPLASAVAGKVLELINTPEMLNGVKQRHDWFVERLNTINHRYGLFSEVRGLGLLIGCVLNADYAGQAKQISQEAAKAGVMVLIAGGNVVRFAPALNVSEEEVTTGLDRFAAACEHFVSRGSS

[2] = target: T1, AstC; test: differential scanning fluorimetry, SYPRO dye; details: Tris buffered saline; apo-protein plus PLP (about 10-fold excess) versus apo-protein
[3] = target: T1, AstC; test: X-ray crystal structure of co-crystals, […] Å; details: covalent to PLP cofactor (external aldimine); PLP present; salt bridge to Arg141; ammonium sulfate pH 7-9

apparent Tm (holo-AstC; apo-AstC 43.5) [2] [°C]	Compound	X-ray crystal structure, 2.20 Å [1]	X-ray crystal structure of co-crystals, 2.45 Å [3]
46	Cc1ncc(COP(=O)(O)O)c(C=O)c1O [PLP, pyridoxal phosphate]	continuous density between Lys252 and the PLP, indicating that the expected aldimine had formed	
	NCCC[C@H](NC(=O)CCC(=O)O)C(=O)O [SO, succinylornithine]		continuous electron density between PLP and SO was observed (see Figure 5C)
